Experimental data reported in patent publication US11149050B2, “Highly soluble steviol glycosides” (PureCircle USA Inc., priority 2016, dated 2021).
Read-outs that look alike come from different tables or passages of the source.

Assays:
[1] = cited from earlier work
[2] = Solubility in RO water at room temperature (25° C.) within 5 minutes, soluble if <10 FAU turbidity; assay type: physicochemical; conditions: crystalline material
Experimental: Hereinafter, unless specified otherwise, the solubility of material is determined in RO (reverse osmosis) water at room temperature (25° C.) within 5 minutes.
Hereinafter, where the solubility is expressed as “%”, it to be understood as number of grams of material soluble in 100 grams of solvent.
Hereinafter, the descriptive terms for solubility are provided according to definitions in Combined Compendium of Food Additive Specifications Vol. 4 (FAO JECFA Monographs 1, Rome 2006, page 41).
Procedure: Unless otherwise specified, transfer a known amount of the sample into a flask containing known amount of the specified solvent, shake for no less than 30 sec and no more than 5 min.”
The material is deemed soluble at certain concentration if the produced solution has <10 FAU (Formazin Attenuation Unit) turbidity value.

[3] = cited from earlier work; for water solubility at room temperature: pure (>95% w/w) compound, room temperature (25° C.); for solubility (in words): water

SMILES	Rate of dissolution in H2O at 25° C. (descriptive) [1]	Rate of dissolution in H2O at 25° C. ([1]; in 5 minutes)	solubility, JECFA descriptive term [2]	water solubility at room temperature [3]	solubility (in words) [3]	further results
C=C1C[C@@]23CC[C@H]4[C@@](C)(CCC[C@@]4(C)C(=O)O[C@@H]4O[C@H](CO)[C@@H](O)[C@H](O)[C@H]4O)[C@@H]2CC[C@]1(O[C@@H]1O[C@H](CO)[C@@H](O)[C@H](O[C@@H]2O[C@H](CO)[C@@H](O)[C@H](O)[C@H]2O)[C@H]1O[C@@H]1O[C@H](CO)[C@@H](O)[C@H](O)[C@H]1O)C3 [Form 3, Rebaudioside A]	High	(>30% in				
C=C1C[C@@]23CC[C@H]4[C@@](C)(CCC[C@@]4(C)C(=O)O[C@@H]4O[C@H](CO)[C@@H](O)[C@H](O)[C@H]4O[C@@H]4O[C@H](CO)[C@@H](O)[C@H](O)[C@H]4O)[C@@H]2CC[C@]1(O[C@@H]1O[C@H](CO)[C@@H](O)[C@H](O[C@@H]2O[C@H](CO)[C@@H](O)[C@H](O)[C@H]2O)[C@H]1O[C@@H]1O[C@H](CO)[C@@H](O)[C@H](O)[C@H]1O)C3 [Rebaudioside D]			very slightly soluble	less than 0.05%	very low water solubility	
C=C1C[C@@]23CC[C@H]4[C@@](C)(CCC[C@@]4(C)C(=O)O[C@@H]4O[C@H](CO)[C@@H](O)[C@H](O)[C@H]4O)[C@@H]2CC[C@]1(O[C@@H]1O[C@H](CO)[C@@H](O)[C@H](O[C@@H]2O[C@H](CO)[C@@H](O)[C@H](O)[C@H]2O)[C@H]1O[C@@H]1O[C@H](CO)[C@@H](O)[C@H](O)[C@H]1O)C3 [Form 1, Rebaudioside A]	Very low					Rate of dissolution in H2O at 25° C. ([1]; in 60 minutes): (<0.2% in 60; solubility (in words) ([3]; listed as hydrate form of Rebaudioside A): lowest solubility
C=C1C[C@@]23CC[C@H]4[C@@](C)(CCC[C@@]4(C)C(=O)O[C@@H]4O[C@H](CO)[C@@H](O)[C@H](O)[C@H]4O)[C@@H]2CC[C@]1(O[C@@H]1O[C@H](CO)[C@@H](O)[C@H](O[C@@H]2O[C@H](CO)[C@@H](O)[C@H](O)[C@H]2O)[C@H]1O[C@@H]1O[C@H](CO)[C@@H](O)[C@H](O)[C@H]1O)C3 [Form 2, Rebaudioside A]	Intermediate	(<30% in 5				
C=C1C[C@@]23CC[C@H]4[C@@](C)(CCC[C@@]4(C)C(=O)O[C@@H]4O[C@H](CO)[C@@H](O)[C@H](O)[C@H]4O)[C@@H]2CC[C@]1(O[C@@H]1O[C@H](CO)[C@@H](O)[C@H](O[C@@H]2O[C@H](CO)[C@@H](O)[C@H](O)[C@H]2O)[C@H]1O[C@@H]1O[C@H](CO)[C@@H](O)[C@H](O)[C@H]1O)C3 [Form 4, Rebaudioside A]	High	(>35% in				solubility (in words) ([3]; listed as rebaudioside A amorphous forms): high solubility
C=C1C[C@@]23CC[C@H]4[C@@](C)(CCC[C@@]4(C)C(=O)O[C@@H]4O[C@H](CO)[C@@H](O)[C@H](O[C@@H]5O[C@H](CO)[C@@H](O)[C@H](O)[C@H]5O)[C@H]4O[C@@H]4O[C@H](CO)[C@@H](O)[C@H](O)[C@H]4O)[C@@H]2CC[C@]1(O[C@@H]1O[C@H](CO)[C@@H](O)[C@H](O[C@@H]2O[C@H](CO)[C@@H](O)[C@H](O)[C@H]2O)[C@H]1O[C@@H]1O[C@H](CO)[C@@H](O)[C@H](O)[C@H]1O)C3 [Rebaudioside M]			very slightly soluble	about 0.1%	very low water solubility	solubility (in words) ([3]; listed as rebaudioside M): poor aqueous solubility
